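Exposure lasted 48 hours, with cells grown in 96-well plates and compounds tested at five concentrations. The concentration for 50% growth inhibition is given as GI50.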 Active and inactive are the calls of the source. No stated cut-off is given here; in the data, active = GI50 up to about 1.1 µM and inactive = higher.
Assays:
Assay in all cases: DTP human tumour cell line panel, 48 h
KM-20L2 = system: KM-20L2
M19-MEL = system: M19-MEL
DMS-273 = system: DMS-273
SNB-78 = system: SNB-78
DLD-1 = system: DLD-1
XF498 = system: XF498
HOP-18 = system: HOP-18
DMS-114 = system: DMS-114
RXF 631 = system: RXF 631

Measured: GI50

COC(=O)c1s/c(=N\C(=S)N(C)C)n(-c2ccc(Cl)cc2)c1C(=O)OC
inactive: KM-20L2 > 100 µM | M19-MEL > 100 µM | DMS-273 > 100 µM | SNB-78 > 100 µM

CCC1C(=O)OCc2c1cc1n(c2=O)C(CC)c2c-1nc1ccccc1c2Cl (stereo not given)
inactive: KM-20L2 31.3 µM | DLD-1 35.2 µM | M19-MEL 32.4 µM | DMS-273 7.85 µM | SNB-78 25.6 µM | XF498 24.8 µM | HOP-18 20.3 µM

CCOC(=O)NC1CC2CCC1(OC)C=C2C (stereo not given)
inactive: KM-20L2 > 100 µM | DMS-114 > 100 µM | DLD-1 > 100 µM | M19-MEL > 100 µM | DMS-273 > 100 µM | SNB-78 > 100 µM | XF498 > 100 µM | HOP-18 > 100 µM

CCOc1ccc(NC(=O)CC2SC(N)=NC2=O)cc1 (stereo not given)
inactive: KM-20L2 > 100 µM | DMS-114 > 100 µM | DLD-1 > 100 µM | M19-MEL > 100 µM | SNB-78 > 100 µM | XF498 > 100 µM

C[N+](C)(C)C.FC(F)(F)C1(C(F)(F)F)O[SiH-]2(OC(C(F)(F)F)(C(F)(F)F)c3ccccc32)c2ccccc21
inactive: KM-20L2 5.24 µM | DMS-114 14.1 µM | M19-MEL 18.2 µM | DMS-273 20.1 µM | SNB-78 13.2 µM | HOP-18 36.9 µM

Clc1cc(Cl)c2c(Cl)cc(Cl)c3c2c1N=S=N3
inactive: KM-20L2 > 100 µM | DMS-114 > 100 µM | DLD-1 83.8 µM | M19-MEL > 100 µM | DMS-273 > 100 µM | SNB-78 > 100 µM | XF498 12.9 µM | HOP-18 > 100 µM

Cc1cc(C)c2c(c1)N[S@@](=O)S2
inactive: KM-20L2 51.3 µM | DMS-114 18.7 µM | DLD-1 26.9 µM | M19-MEL 21.7 µM | DMS-273 17.2 µM | SNB-78 26.1 µM | XF498 22.6 µM | HOP-18 23.6 µM

CCNC(C)Cc1ccccc1 (stereo not given)
inactive: KM-20L2 > 100 µM | DMS-114 > 100 µM | DLD-1 > 100 µM | DMS-273 > 100 µM | SNB-78 > 100 µM | HOP-18 > 100 µM

CC(=O)OC12c3ccccc3C1CCCC21OCCCO1 (stereo not given)
inactive: KM-20L2 > 100 µM | DMS-114 > 100 µM | DLD-1 > 100 µM | M19-MEL > 100 µM | DMS-273 > 100 µM | SNB-78 > 100 µM | HOP-18 > 100 µM

CC1=C2O[B-](c3ccccc3)(c3ccccc3)[O+]=C2C=CN1
inactive: KM-20L2 62.1 µM | DMS-114 38.7 µM | DLD-1 33.4 µM | M19-MEL 62.4 µM | DMS-273 45.9 µM | SNB-78 51.8 µM | XF498 12.5 µM | RXF 631 44.9 µM

COc1ccc(N2C(=O)[C@@H]3[C@@H]4CC(C)CC[C@@H]4c4c([nH]c5ccccc45)[C@@H]3C2=O)cc1 (stereo not given in full)
inactive: KM-20L2 > 54.8 µM | DMS-114 31.1 µM | DLD-1 29.5 µM | M19-MEL > 70.1 µM | DMS-273 14.7 µM | SNB-78 3.76 µM | XF498 8.3 µM | HOP-18 4.4 µM

CN/N=C(/Cc1occc(=O)c1O)C(=O)Nc1ccc(C)c(C)c1
inactive: KM-20L2 > 100 µM | DMS-114 > 100 µM | M19-MEL > 100 µM | SNB-78 60.1 µM

CC1=C(C)CC2(CCCCC2=O)[S+]([O-])C1 (stereo not given)
inactive: KM-20L2 > 100 µM | DMS-114 > 100 µM | DLD-1 > 100 µM | M19-MEL > 100 µM | DMS-273 > 100 µM | SNB-78 > 100 µM | XF498 > 100 µM | HOP-18 > 100 µM

CN(Cc1ccccc1)C(=NC#N)N(C)Cc1ccccc1
inactive: KM-20L2 > 100 µM | DLD-1 > 100 µM | M19-MEL > 100 µM | DMS-273 > 100 µM | SNB-78 > 100 µM

O=C1NC(=O)C2C(=O)NC(=O)C1C2(c1ccccc1)c1ccc(Cl)cc1 (stereo not given)
inactive: KM-20L2 > 100 µM | DLD-1 > 100 µM | M19-MEL > 100 µM | DMS-273 > 100 µM | SNB-78 > 100 µM | XF498 > 100 µM

CN(/N=C/c1cccc2cccnc12)c1ccccc1
inactive: KM-20L2 > 100 µM | DMS-114 > 100 µM | DLD-1 > 100 µM | M19-MEL > 100 µM | DMS-273 85.7 µM | SNB-78 > 100 µM | XF498 > 100 µM | HOP-18 > 100 µM

O=C(Nc1c(Cl)cc([N+](=O)[O-])cc1Cl)C(=O)C(C1OC(=O)c2ccccc21)[N+](=O)[O-] (stereo not given)
inactive: KM-20L2 > 100 µM | DMS-114 92.3 µM | DLD-1 > 100 µM | M19-MEL > 100 µM | SNB-78 41.2 µM | XF498 > 100 µM | RXF 631 > 100 µM

CC1=NOC(=O)C1/N=N/c1ccc(Br)c(C)c1 (stereo not given)
inactive: KM-20L2 33.7 µM | DMS-114 15.6 µM | DLD-1 24.4 µM | M19-MEL 18.6 µM | DMS-273 20.2 µM | SNB-78 26.4 µM | XF498 17.6 µM | HOP-18 3.31 µM

NC12CC3CC(C1)CC(Cl)(C3)C2
inactive: KM-20L2 > 100 µM | DMS-114 > 100 µM | DLD-1 > 100 µM | M19-MEL > 100 µM | DMS-273 > 100 µM | SNB-78 > 100 µM | XF498 > 100 µM | RXF 631 > 100 µM

O=C(CCN(C(=O)O)S(=O)(=O)c1ccc(NC(=O)c2ccccc2)cc1)NC1CCCCC1
inactive: KM-20L2 > 100 µM | DMS-114 > 100 µM | DLD-1 62.5 µM | M19-MEL 59.7 µM | DMS-273 21.7 µM | SNB-78 > 100 µM | XF498 > 100 µM | HOP-18 > 100 µM

CC(=O)OCC1OC(n2cc([N+](=O)[O-])c(=O)[nH]c2=O)C(OC(C)=O)C(OC(C)=O)C1OC(C)=O (stereo not given)
inactive: KM-20L2 > 100 µM | DMS-114 > 100 µM | DLD-1 > 100 µM | M19-MEL > 100 µM | DMS-273 > 100 µM | XF498 > 100 µM | HOP-18 43.2 µM

COc1ccc2c(c1)[n+]([O-])c(-c1c(Cl)cccc1Cl)c(N)[n+]2[O-]
inactive: KM-20L2 42.2 µM | DMS-114 34.4 µM | DLD-1 39.4 µM | M19-MEL 40.3 µM | DMS-273 37.5 µM | SNB-78 69.3 µM | XF498 24.6 µM | RXF 631 25.3 µM

CCOC(=O)C1=C(N)N(c2ccccc2)/C(=C(/C#N)c2nc3ccccc3[nH]2)S1
inactive: KM-20L2 > 100 µM | DLD-1 > 100 µM | M19-MEL > 100 µM | DMS-273 > 100 µM | SNB-78 > 100 µM | XF498 > 100 µM

C=C1C(=O)C23C(O)CC4C5(C)CCCC4(C(O)OC5)C2C(OC(C)=O)CC1C3O (stereo not given)
inactive: KM-20L2 8.95 µM | DMS-114 4.51 µM | DLD-1 5.06 µM | M19-MEL 13.8 µM | DMS-273 17.9 µM | SNB-78 6.03 µM | HOP-18 16.7 µM

O=C1C(c2ccc([N+](=O)[O-])cc2)=C(Cl)C(=O)c2c(O)cccc21
inactive: DMS-114 7.31 µM | DLD-1 11 µM | M19-MEL 18.2 µM | DMS-273 28 µM | SNB-78 25.5 µM | XF498 10.6 µM | HOP-18 5.05 µM

CC(=O)N/C=C/c1cc(O)ccc1O
inactive: KM-20L2 40.8 µM | DLD-1 27.2 µM | M19-MEL 31.5 µM | DMS-273 > 67.5 µM | SNB-78 > 47.8 µM | XF498 18.1 µM | HOP-18 16.4 µM
